Source: patent publication US8258188B2 (priority 2004, dated 2012)
Several values for one entry are separate records, joined by “and”; a condition that tells them apart may be missing. Equal entries are not always repeated. Where two headings read alike, the source gives them in different places. Marks after values point to notes of the source that are not given here.

Key:
[1] = system: C57BL6 mice challenged with 2.5% DSS; experiment: DSS colitis model of experimental IBD (Experiment 1); format: in vivo
[2] = 0.6 g punicic acid/100 g food, 38 days, oral
Text: All specimens were generally labeled with the following information: 1) mouse number; 2) date collected; 3) experiment number; 4) type of solvent; and 5) tissue type.

[3] = system: colonic lymph nodes; details: 0.6 g punicic acid/100 g food, least square mean ± SEM
Protocol: (§1) A total of twenty-two C57BL6 mice were used in Experiment 2. All mice were born on Nov. 23, 2003, weaned on Dec. 16, 2003 and fed the experimental diets from Dec. 19, 2003 to Jan. 15, 2004. […] Mice were weighed on a weekly basis. Mice were euthanized. Blood was collected from each mouse for generating serum, which was stored at −20° C. Thymus, spleen and colonic lymph nodes were harvested, weighed and collected in cRPMI in sterile conditions. Colon and liver specimens were collected in RNA later (Ambion Inc., Austin, Tex.) and frozen at −80° C. for gene expression analysis. Brain, kidney, liver, colon and ileum were also collected in a 10% buffered neutral formalin solution and processed as described in experiment 1 for histological evaluation. The remaining portion of the carcass was stored in 50-mL, conical tubes and frozen at −20° C. for body composition and fatty acid analysis. All specimens were generally labeled with the following information: 1) mouse number; 2) date collected; 3) experiment number; 4) type of solvent; and 5) tissue type. Tissue slides were examined in an Olympus microscope (Olympus America Inc., Dulles, Va.). Images were captured using the FlashBus FBG software (Integral Technologies, Indianapolis, Ind.) and processed in Adobe Photoshop Elements 2.0 (Adobe Systems Inc., San Jose, Calif.).
(§2) Spleens, thymuses and colonic lymph nodes were collected in complete RPMI on ice. Single-cell suspensions were obtained from each tissue by gently disrupting the tissue between two frosted ends of two glass slides on a petri dish containing 3 mL of cRPMI. The single-cell suspension was transferred from the petri dish to a 15-mL polypropylene tube (Fisher, Atlanta, Ga.) and washed by centrifuging in an Eppendorf 5810 R centrifuge (Westbury, N.Y.) at 200×g for 5 minutes at 4° C. The supernatant was discarded by decantation of the tube. The cell pellet was broken by gently tapping the tube against a solid surface. The total numbers of spleenocytes, thymocytes and colonic lymph node lymphocytes in each mouse were enumerated in a Z1 Coulter Single Particle Counter (Miami, Fla.). Briefly, 10-mL of isoton II diluent solution (Beckman Coulter, Miami, Fla.) were added into a counting vial, followed by 40 μL of the cell suspension, 4 drops of Zapaglobin (Beckman Coulter, Miami Fla.), and 10 additional mL of the isoton solution. The volume in which the cells were resuspended was assessed using a 5-mL, sterile pipette. The concentration of cells/mL and the total volume in each tube were used to determine the total amount of cells in each tissue and mouse.
(§3) A description of the uses of flow cytometry was provided in Experiment 1. Splenocyte suspensions were freed of erythrocytes by osmotic lysis (adding 4.5 mL of sterile deionized water for 1 to 2 seconds and then adding 0.5 mL of 10× PBS to make 1× PBS solution). Cells were washed again by centrifuging in an Eppendorf 5810 R centrifuge (Westbury, N.Y.) at 200×g for 5 minutes at 4° C. The supernatant was discarded by decantation of the tube. The cell pellet was broken by gently tapping the tube against a solid surface. FACS buffer (1 mL) was added in each tube. Splenocytes, thymocytes and colonic lymph node-derived mononuclear cells were enumerated in a Z1 Coulter Single Particle Counter (Miami, Fla.), adjusted to 2×10^6 cells/mL. Splenocytes, thymocytes, and colonic lymph nodes were analyzed for expression of CD4, CD8, CD3, TCRalphabeta, TCRgammadelta and CD19 molecules by flow cytometry as previously described (Bassaganya-Riera et al. 2001; Bassaganya-Riera et al. 2002; Bassaganya-Riera et al. 2003). Briefly, a volume of 100 μl of the splenocyte, thymocyte, and colonic lymph node lymphocyte suspension was added in to a round-bottomed microtiter plate (Becton Dickinson, Lincoln Park, N.J.) and stained with 50 μl of the primary antibody solutions in FACS buffer.

[4] = system: spleen; details: 0.6 g punicic acid/100 g food; least square mean ± SEM
Protocol: as §1, §2, §3

[5] = system: thymus; details: 0.6 g punicic acid/100 g food; least square mean ± SEM
Protocol: as §1, §2, §3

[6] = system: lymph node-derived lymphocytes
Protocol: (§4) cRPMI medium was prepared as shown above. Wells of 96-well flat-bottomed microtiter plates (Becton Dickinson, Lincoln Park, N.J.) were seeded with 2×10^5 mononuclear cells in a total volume of 200 μl per well. Wells contained either concanavalin A (5 μg/ml, Con-A; Sigma), or medium alone (non-stimulated). Plates were incubated for 5 days at 37° C. in 5% CO2 humidified atmosphere. After 5 days, 0.5 μCi of methyl-[^3H] thymidine (specific radioactivity 6.7 Ci mmol^−1; Amersham Life Science, Arlington Heights, Ill.) in 10 μl of medium was added to each well and plates incubated for an additional 20 h. Well contents were harvested onto fiber filters with a PHD cell harvester (Skatron Instruments Inc., Sterling, Va.) and incorporated radioactivity measured by liquid scintillation counting (Beckman Instruments, Schaumburg, Ill.). Samples were run in triplicate and stimulation indices (SI) calculated by dividing counts min^−1 of stimulated wells by counts min^−1 from non-stimulated wells.
(§5) Statistical analysis was performed by analysis of variance (ANOVA). […] Differences with a probability value (P<0.05) were considered statistically significant.

[7] = system: splenocytes
Protocol: as §4, §5

[8] = system: C57BL6 mice fed regular or high fat diets; details: day 78, least squares mean
Text: (§6) In Western countries, Metabolic Syndrome or Syndrome X (i.e., diabetes, obesity, cardiovascular disease, hypertension and hyperlipidemia) is on a steady rise. […] A total of fifty C57BL6 mice were used in experiment 4. […] These diets are defined as regular diets and were formulated to be isocaloric between treatment groups. […] The high fat diets were also formulated to be isocaloric between treatment groups. The remaining mice within each group (n=5) were fed the regular diets. On day 78 of the experiment, mice were killed, blood was collected and immediately analyzed for fasting glucose concentrations by using the Accu-Check Instant Plus System (Roche Diagnostics Corporation, Indianapolis, Ind.) or stored for subsequent analysis of insulin concentrations in plasma. Abdominal white adipose tissue and interscapular brown adipose tissue were collected, weighed and stored at −80° C. for RNA analyses. Liver, lungs, kidneys, pancreas and heart were examined for macroscopic abnormalities (gross lesions), fixed in phosphate-buffered formalin (10%) and processed as described in experiment 1 for histological evaluation. All specimens were generally labeled with the following information: 1) mouse number; 2) date collected; 3) experiment number; 4) type of solvent; and 5) tissue type.
Serum insulin concentrations were determined by using commercially available enzyme-linked immunosorbent assay kits (Linco Research, St. Charles, Mo.).
Data were analyzed by analysis of variance (ANOVA). The ANOVA was performed by using the general linear model procedure of SAS (SAS Institute Inc., Cary, N.C.) as previously described (Bassaganya-Riera et al. 2004). Differences with probability value (P<0.05) were considered significant.

[9] = system: C57BL6 mice fed regular or high fat diets; details: day 78, intraperitoneal D-glucose after 14 hours fast
Text: as §6
A glucose tolerance test was conducted on day 78 of the experiment. Animals were fasted overnight (14 hours).

[10] = punicic acid-supplemented diets, 78 days
Text: as §6

[11] = system: splenocytes stimulated with VR-1469 influenza virus antigens
[12] = 105-day dietary supplementation, 0.6 g punicic acid/100 g food
[13] = 7-day challenge with 2.5% DSS, grade 0 to 4, least square mean ± SEM
[14] = concanavalin A 5 μg/ml, cells from mice fed 0.6 g punicic acid/100 g food
[15] = counts of Con A-stimulated wells divided by counts of non-stimulated wells
[16] = non-stimulated, cells from mice fed 0.6 g punicic acid/100 g food

## CCCC\C=C/C=C/C=C\CCCCCCCC(=O)O [punicic acid]
[1]; 0.6 g punicic acid/100 g food, 2.5% DSS challenge
  start of rectal bleeding, on average: 7 day of the DSS challenge
[1]; 0.6 g punicic acid/100 g food, by day 6 of the 2.5% DSS challenge
  mortality rate associated with colonic inflammation: 0%
[1]; [13]
  Histological score: Crypt Damage: 0.33 ± 0.26
  Histological score: Epithelial Erosion: 0.00 ± 0.00
  Histological score: Inflammatory Cell Infiltration: 0.50 ± 0.17
  Histological score: Metaplasia/Hyperplasia: 0.50 ± 0.28
  Histological score: Mucosal Thickness: 1.83 ± 0.24
  Histological score: Vascular Changes: 0.50 ± 0.35
[1]; diet fed 32 days prior to 7-day DSS challenge (2.5%, wt/vol)
  colitis-associated disease: improved
[1]; following the DSS challenge
  average colon weights: 0.153 grams
  average macroscopic score in colons (scale from 0 to 3): 1.4
  histopathological examination of H&E-stained slides of colon: no major lesions
[2]
  adverse effects throughout the duration of the study: No adverse effects were observed
  macroscopic and histologic analysis of liver, kidneys and brain: no abnormalities
[3]
  colonic lymph nodes: CD3^+ T cells: 10.24 ± 0.85
  colonic lymph nodes: CD4^+ T cells: 6.65 ± 0.58
  colonic lymph nodes: CD8^+ T cells: 4.53 ± 0.41
  colonic lymph nodes: CD19^+ T cells: 5.98 ± 0.72
  colonic lymph nodes: Lymphocytes: 18.64 ± 1.53 ×10^6/mL
  colonic lymph nodes: TCR αβ^+T cells: 11.78 ± 1.08
  colonic lymph nodes: Weight: 261.66 mg
[3]; listed as Punicic Acid
  colonic lymph nodes: Weight: 261.66 ± 3.28 mg
[4]
  spleen: CD3^+ T cells: 30.05 ± 1.78
  spleen: CD4^+ T cells: 17.04 ± 1.10
  spleen: CD8^+ T cells: 12.72 ± 0.73
  spleen: CD19^+ T cells: 102.22 ± 5.42
  spleen: TCR αβ^+T cells: 33.12 ± 1.93
  spleen: Total # of lymphocytes: 144.21 ± 7.13 ×10^6/mL
  spleen: Weight: 884.54 ± 3.30 mg
[5]
  thymus: CD4^+ thymocytes: 2.51 ± 0.28
  thymus: CD4^+CD8^+ thymocytes: 63.25 ± 8.73
  thymus: CD8^+ thymocytes: 1.34 ± 0.18
  thymus: Lymphocytes: 69.18 ± 9.56 ×10^6/mL
  thymus: TCR αβ^+ thymocytes: 9.12 ± 1.21
  thymus: Weight: 845.00 ± 4.68 mg
[6]; [14]
  Counts/minute lymph nodes (cRPMI & ConA): 929.06 ± 161.10 Counts/minute
[6]; [15]
  Stimulation index lymph nodes: 22.40 ± 3.61
[6]; [16]
  Counts/minute lymph nodes (cRPMI): 43.12 ± 3.76 Counts/minute
[7]; [14]
  Counts/minute spleen (cRPMI & ConA): 1905.27 ± 254.42 Counts/minute
[7]; [15]
  Stimulation index spleen: 25.20 ± 3.16
[7]; [16]
  Counts/minute spleen (cRPMI): 73.17 ± 10.96 Counts/minute
[8]; High Fat Diets
  Brown adipose tissue (interscapular) weight: 0.124 g
  White adipose tissue (abdominal) weight: 0.830^b g
  plasma fasting Glucose: 219.5^b mg/dL
  plasma fasting Insulin: 1.229^b ng/mL
[8]; Regular Diets
  Brown adipose tissue (interscapular) weight: 0.138 g
  White adipose tissue (abdominal) weight: 0.801^b g
  plasma fasting Glucose: 121.40^b mg/dL
  plasma fasting Insulin: 0.669^b ng/mL
[9]; high fat diets
  glucose tolerance versus control diet: normalizes impaired glucose tolerance
[9]; regular diets
  glucose tolerance versus control diet: not different
[10]
  fatty liver or enlarged viscera: not observed
[11]
  Relative Proliferation Index B cells: 1.15 ± 0.63 and 1.16 ± 0.27
  Relative Proliferation Index CD4^+ T cells: 0.68 ± 0.48 and 1.10 ± 0.63
[12]
  H&E histology of brain, kidneys, liver, heart and lungs: no microscopic lesions
  adverse effects or clinical signs throughout the study: No negative adverse effects
